{"source": "patent US10966911B2", "about": "“Melanin decomposition inhibitor” (KAO CORPORATION, priority 2016, dated 2021)", "key": {"LC3-II": {"system": "LC3-II", "test": "Autophagy activity of epidermal keratinocytes (LC3-II accumulation with chloroquine diphosphate, Western blotting)", "format": "cell-based, human", "conditions": "chloroquine diphosphate 10 μM, 24 hours, FIG. 18", "method": "Normal human neonatal foreskin-derived epidermal keratinocytes (Human Epidermal Keratinocytes, neonatal (HEKn) lightly; keratinocytes) were purchased from Thermo Fisher Scientific. […] The keratinocytes were cultured in a grow medium (Epilife) epidermal keratinocytes (Thermo Fisher Scientific) supplemented with a growth additive (Humedia-KG) (manufactured by Kurabo Industries Ltd.) at 37° C. in 5 vol % CO2 atmospheric conditions.\nKeratinocytes were seeded in a 6-well plate at a density of 1.5×10^5 cells/well (2 mL/well). The following day, proguanil was added so as to obtain a final concentration of 0.3, 1, 3, 10 or 30 μM. Culture was performed at 37° C. in 5 vol % CO2 atmospheric conditions. As a control, the same amount of DMSO was added. […] The following day, Chloroquine diphosphate attached to LC3B Antibody Kit for Autophagy (Thermo Fisher Scientific) was added so as to obtain a final concentration of 10 μM. Culture was performed at 37° C. in 5 vol % CO2 atmospheric conditions for 24 hours. After completion of the culture, SDS-PAGE and western blotting were performed in accordance with the method as mentioned above. As a primary antibody, anti-LC3B (1:1000) attached to the kit mentioned above was used. […] Expression of β-actin as the internal standard was evaluated by using monoclonal antibody specific for β-actin (Sigma-Aldrich, 1:5000)."}, "human skin tissue [1]": {"system": "human skin tissue", "test": "Skin color darkening in cultured human skin tissue (appearance observed and photographed)", "format": "cell-based", "procedure": "(§1) (1) A normal human skin tissue obtained at the time of a surgical operation was purchased from a Skin Bank of the United States, National Disease Research Interchange (NDRI). The human skin tissue, from which subcutaneous fat was previously removed, was cut into pieces having a size of about 1 cm×about 1 cm by knife and cultured by using a 6-well plate at 37° C. under a 5% CO2 atmosphere. Advanced-DMEM medium containing 10% (v/v) Fetal Bovine Serum (FBS) (Life Technologies, respectively) was used for culture.\n(2) The human skin tissue prepared in accordance with the method described in the above (1) was allowed to stand still in the 6-well plate. Then, phenformin was added in the medium so as to have a final concentration of 300 μM and tissue culture was initiated. The medium replacement was performed every 2 to 3 days. Six days or eight days later, the appearance of the skin tissue was observed and photographed.\nA human skin tissue prepared in accordance with the method of Example 1 (1) was allowed to stand still in a 6-well plate. Then, phenformin was added in a medium at a final concentration of 100, 200 or 300 μM and tissue culture was initiated. Four days later, the appearance of the skin tissue was observed and photographed.\nSkin tissues prepared in accordance with the method of Example 1 (1) were allowed to stand still in 6-well plates. […]"}, "human skin tissue [2]": {"system": "human skin tissue", "test": "Fontana-Masson staining of cultured human skin tissue (melanin deposition)", "format": "cell-based", "procedure": "as §1, with “culture. (3) Next, the skin tissue cultured was subjected to Fontana-Masson staining to observe deposition of melanin. In the staining, Fontana-Masson Stain Kit manufactured by American […] Scientific, Inc. was used.” for “culture.”"}, "LC3-II and p62 proteins [3]": {"system": "LC3-II and p62 proteins", "test": "Autophagy markers LC3-II and p62 in epidermal cells (Western blotting)", "format": "cell-based, human", "conditions": "berberine 10, 30 or 60 μM, 24 hours, FIG. 7", "procedure": "As a part of elucidation of the skin color darkening action of berberine, the effect on autophagy in epidermal cells was examined. Berberine was added in a medium for the epidermal cells seeded in a 6-well plate at a final concentration of 10, 30 or 60 μM and the epidermal cells were cultured for 24 hours. Protein was extracted and subjected to Western-blotting analysis to determine the expression levels of LC3-II and p62 proteins serving as markers for autophagy.\nAs a part of elucidation of skin color darkening action of phenformin and berberine, an effect of phenformin and berberine on melanosome decomposition in, epidermal cells was examined. The epidermal cells were isolated from a foreskin tissue obtained from a Skin Bank of the United States, National Disease Research Interchange (NDRI) in accordance with a predetermined method, and cultured. Melanosomes were prepared from MNT-1 cell strain in accordance with a predetermined method (Murase et al. (2013), J Invest Dermatol, 133: 2416-2424). A predetermined amount of melanosomes was added to epidermal cells and the cells were cultured for 24 hours. Melanosome prepared from MNT-1 cell strain cultured in an area of 35 cm^2 was added per well of the 6-well plate. […]"}, "Pmel17": {"system": "Pmel17", "test": "Melanosome decomposition in epidermal cells that incorporated MNT-1 melanosomes (Pmel17 Western blotting)", "format": "cell-based, human", "conditions": "24 hours, FIG. 8", "procedure": "As a part of elucidation of skin color darkening action of phenformin and berberine, an effect of phenformin and berberine on melanosome decomposition in, epidermal cells was examined. The epidermal cells were isolated from a foreskin tissue obtained from a Skin Bank of the United States, National Disease Research Interchange (NDRI) in accordance with a predetermined method, and cultured. Melanosomes were prepared from MNT-1 cell strain in accordance with a predetermined method (Murase et al. (2013), J Invest Dermatol, 133: 2416-2424). A predetermined amount of melanosomes was added to epidermal cells and the cells were cultured for 24 hours. Melanosome prepared from MNT-1 cell strain cultured in an area of 35 cm^2 was added per well of the 6-well plate. After the cells were washed with PBS, the epidermal cells which had incorporated melanosome therein were added with phenformin at a final concentration of 100 or 200 μM, berberine at a final concentration of 10, 30 or 60 μM and a Goldenseal extract rich in berberine at a final concentration 0.2 or 0.5% (v/v), and the cells were cultured for a further 24 hours. Protein was extracted and subjected to Western-blotting analysis to determine the expression level of Pmel17, a major protein constituting melanosome."}, "AMPK": {"system": "AMPK", "conditions": "Non-Patent Literature 2; cited from earlier work"}, "Pmel17 protein": {"system": "Pmel17 protein", "test": "Western blotting of Pmel17 protein in cultured human skin tissue", "format": "cell-based", "conditions": "cultured 6 days with or without phenformin, FIG. 3A", "procedure": "as §1\nThe skin tissue prepared in accordance with the method of Example 1 (1) was allowed to stand still in a 6-well plate and cultured in the presence or absence of phenformin for 6 days. Protein was extracted from the skin tissue and used for quantitative analysis of Pmel17 protein, which is a major protein constituting a melanosome, by Western-blotting. Using a mouse anti-human Pmel17 antibody (DAKO) as a primary antibody and a goat anti-mouse IgG antibody as a secondary antibody, signals were detected by using ECL prime reagent (GE Healthcare) and ODYSSEY Fc Imaging System (LICOR). Beta-actin protein as an internal standard was detected in the same manner."}, "LC3-II and p62 proteins [4]": {"system": "LC3-II and p62 proteins", "test": "Western blotting of autophagy markers LC3-II and p62 in cultured human skin tissue", "format": "cell-based", "conditions": "4 days, phenformin at different concentrations, FIG. 3B", "procedure": "as §1\nFurther, the skin tissue prepared in accordance with the method of Example 1 (1) was allowed to stand still in a 6-well plate and cultured in the absence or presence of phenformin at a different concentration for 4 days. Proteins were extracted from the skin tissues and subjected to Western-blotting analysis. In this manner, the expression levels of LC3-II and p62 proteins, which are localized in autophagosome membrane and finally decomposed by autophagy, were determined. A mouse anti-human LC3 antibody (Cosmo Bio) and rabbit anti-human p62 antibody (MBL International) were used as primary antibodies."}, "human hair follicle": {"system": "human hair follicle", "test": "Hair color darkening in cultured human hair follicle (Fontana-Masson staining)", "format": "cell-based", "conditions": "phenformin 200 μM, Day 5, FIG. 10"}, "LC3-II and p62 proteins [5]": {"system": "LC3-II and p62 proteins", "test": "Autophagy markers LC3-II and p62 in cultured human hair follicle (Western blotting)", "format": "cell-based", "conditions": "phenformin 200 μM, FIG. 11", "procedure": "A human hair follicle was surgically isolated from a normal human scalp tissue ([…]), which was obtained at the time of surgical operation, and given by a USA dermatologist. The isolated human hair follicle was cultured at 37° C. under a 5% CO2 atmosphere in William E medium supplemented with 20 μg/mL insulin (Sigma-Aldrich), 40 ng/mL hydrocortisone (Sigma-Aldrich), 2 mM L-glutamine (Life Technologies) and a 1% (v/v) penicillin/streptomycin solution (Life Technologies) (all were final concentrations). The isolated human hair follicle was allowed to stand still in a 24-well plate and phenformin was added at a final concentration of 200 μM in the medium. Tissue culture was initiated. Medium replacement was performed Day 1 and Day 3 after the initiation of culture. Follicular tissue at Day 5 after the initiation of culture was embedded in OCT compound (TissueTek) and frozen. These follicular tissues were subjected to Fontana-Masson staining and deposition of melanin was observed.\nFrom the human hair follicle cultured in accordance with the method of Example 8, protein was extracted and subjected to Western-blotting analysis. In this manner, expression levels of autophagy markers, i.e., LC3-II and p62 proteins, were analyzed."}, "[6]": {"system": "AMPK (AMP-activated protein kinase)", "conditions": "human embryonic kidney cells (HEK 293 T cells); Non-Patent Literature 1; cited from earlier work"}}, "data": [{"smiles": "CCN(CC)CCCC(C)Nc1ccnc2cc(Cl)ccc12", "note": "(stereo not drawn) [Chloroquine diphosphate]", "values": [{"measurement": "accumulation of LC3-II", "setting": "LC3-II", "result": "Accumulation of LC3-II was induced"}]}, {"smiles": "COc1ccc2cc3[n+](cc2c1OC)CCc1cc2c(cc1-3)OCO2", "note": "[berberine, Berberine]", "values": [{"measurement": "darkening of skin color", "setting": "human skin tissue [1]; berberine 10 or 30 μM (Caucasian) and 30 or 100 μM (African American), six or four days, FIGS. 5 and 6", "result": "darkening of skin color was induced in a berberine dose-dependent manner"}, {"measurement": "deposition of melanin on the epidermal layer (tissue staining)", "setting": "human skin tissue [2]; berberine 10 or 30 μM and 30 or 100 μM, FIGS. 5 and 6", "result": "Deposition of melanin on the epidermal layer was confirmed"}, {"measurement": "expression level of LC3-II protein", "setting": "LC3-II and p62 proteins [3]", "result": "LC3-II and p62 proteins are accumulated in a berberine dose-dependent manner"}, {"measurement": "expression level of p62 protein", "setting": "LC3-II and p62 proteins [3]", "result": "LC3-II and p62 proteins are accumulated in a berberine dose-dependent manner"}, {"measurement": "expression level of Pmel17", "setting": "Pmel17; berberine 10, 30 or 60 μM", "result": "accumulation of Pmel17 protein in a dose-dependent manner was observed"}, {"measurement": "AMPK activation action", "setting": "AMPK", "result": "has an AMPK activation action"}]}, {"smiles": "N=C(N)NC(=N)NCCc1ccccc1", "note": "[phenformin, Phenformin]", "values": [{"measurement": "skin color darkening (dose dependent)", "setting": "human skin tissue [1]; phenformin 100, 200 or 300 μM, 4 days, FIG. 4", "result": "Recognizable darkening was observed in a dose-dependent manner"}, {"measurement": "accumulation of melanin in the epidermis", "setting": "human skin tissue [2]; phenformin 300 μM, skin tissue, FIGS. 2A, 2B", "result": "significant accumulation of melanin in the epidermis was observed"}, {"measurement": "melanin deposition", "setting": "human skin tissue [2]; phenformin 100, 200 or 300 μM, 4 days, data not shown", "result": "melanin deposition, which is correlated with a change in skin color, was confirmed"}, {"measurement": "amount of Pmel17 protein", "setting": "Pmel17 protein", "result": "amount of Pmel17 protein is increased"}, {"measurement": "expression level of LC3-II protein", "setting": "LC3-II and p62 proteins [4]", "result": "accumulation on both markers was observed"}, {"measurement": "expression level of p62 protein", "setting": "LC3-II and p62 proteins [4]", "result": "accumulation on both markers was observed"}, {"measurement": "expression level of Pmel17", "setting": "Pmel17; phenformin 100 or 200 μM", "result": "accumulation of Pmel17 protein in a dose-dependent manner was observed"}, {"measurement": "hair color darkening", "setting": "human hair follicle", "result": "Apparent hair color darkening was induced"}, {"measurement": "expression level of LC3-II protein", "setting": "LC3-II and p62 proteins [5]", "result": "Accumulation of LC3-II and p62 proteins by addition of phenformin was observed"}, {"measurement": "expression level of p62 protein", "setting": "LC3-II and p62 proteins [5]", "result": "Accumulation of LC3-II and p62 proteins by addition of phenformin was observed"}, {"measurement": "autophagy", "setting": "[6]", "result": "activates autophagy through activation of AMPK"}]}]}
